{"source": "patent US6734186B1", "about": "“Compounds for the treatment of female sexual dysfunction” (Pfizer Inc., priority 1999, dated 2004)", "key": {"anaesthetised rabbit": {"test_system": "anaesthetised rabbit", "description": "Female New Zealand rabbits (˜2.5 kg) were pre-medicated with a combination of Medetomidine (Domitor®) 0.5 ml/kg i.m., and Ketamine (Vetalar®) 0.25 ml/kg i.m. whilst maintaining oxygen intake via a face mask. The rabbits were tracheotomised using a Portex™ uncuffed endotracheal tube 3 ID., connected to ventilator and maintained at a ventilation rate of 30-40 breaths per minute, with an approximate tidal volume of 18-20 ml, and a maximum airway pressure of 10 cm H2O. Anaesthesia was then switched to Isoflurane and ventilation continued with O2 at 2 l/min. The right marginal ear vein was cannulated using a 23G or 24G catheter, and Lactated Ringer solution perfused at 0.5 ml/min. The rabbit was maintained at 3% Isoflurane during invasive surgery, dropping to 2% for maintenance anaesthesia.\nThe left groin area of the rabbit was shaved and a vertical incision was made approximately 5 cm in length along the thigh. The femoral vein and artery were exposed, isolated and then cannulated with a PVC catheter (17G) for the infusion of drugs and compounds. Cannulation was repeated for the femoral artery, inserting the catheter to a depth of 10 cm to ensure that the catheter reached the abdominal aorta. This arterial catheter was linked to a Gould system to record blood pressure. Samples for blood gas analysis were also taken via the arterial catheter. Systolic and diastolic pressures were measured, and the mean arterial pressure calculated using the formula (diastolic x2÷systolic)+3. Heart rate was measured via the pulse oxymeter and Po-ne-mah data acquisition software system (Ponemah Physiology Platform, Gould Instrument Systems Inc)."}, "[1]": {"test_system": "human vaginal smooth muscles cell cultures", "settings": "VIP 0.5 μM; Traish 1999; cited from earlier work"}, "[2]": {"test_system": "anaesthetised rabbit model of sexual arousal", "assay": "Increase in clitoral blood flow after iv infusion of vasoactive agents, anaesthetised rabbit model", "assay_type": "in vivo", "settings": "VIP 200 μg/kg iv infusion", "description": "(§1) A ventral midline incision was made, at the caudal end of the pubis, to expose the pubic area. Connective tissue was removed to expose the tunica of the clitoris, ensuring that the wall was free from small blood vessels. The external vaginal wall was also exposed by removing any connective tissue. One laser Doppler flow probe was inserted 3 cm into the vagina, so that half the probe shaft was still visible. A second probe was positioned so that it lay just above the external clitoral wall. The position of these probes was then adjusted until a signal was obtained. A second probe was placed just above the surface of a blood vessel on the external vaginal wall. Both probes were clamped in position.\n(§2) Vaginal and clitoral blood flow was recorded either as numbers directly from the Flowmeter using Po-ne-mah data acquisition software (Ponemah Physiology Platform, Gould Instrument Systems Inc), or indirectly from Gould chart recorder trace. Calibration was set at the beginning of the experiment (0-125 ml/min/100 g tissue)."}, "isolated rabbit vagina": {"test_system": "isolated rabbit vagina", "assay": "Relaxation of precontracted (1 μM phenylephrine) isolated rabbit vaginal strips", "assay_type": "cell-based", "description": "3.7 (a). Rabbit vagina in vitro preparation:—Female New Zealand white rabbits (2.0-3.0 kg) were killed by cervical dislocation. The abdominal cavity was opened and the vagina excised. Tissue strips were mounted longitudinally in Wesley Co. 5 ml silanised organ chambers with braided silk sutures (6/0 gauge) at an initial resting tension of 1.5 g in Krebs bicarbonate buffer maintained at 37° C. and gassed with 95%O2/5%CO2. The upper ligature of each tissue strip was attached to a 10 g capacity force-displacement transducer and changes in isometric force were measured and recorded using a DART in vitro data capture system. Tissues were allowed to equilibrate for 1.5 hours and were regularly washed with Krebs.\nEach tissue was contracted using 1 μM bath concentration of phenylephrine. […] Tissues then received either a test agent (eg NEP or PDE inhibitor) or DMSO vehicle (time matched control).\nFor the purpose of curve fitting the minimum relaxation response was constrained to 0% and the maximum relaxation response was allowed to free fit."}, "[3]": {"test_system": "anaesthetised rabbit model of sexual arousal", "assay": "Increase in vaginal blood flow after iv infusion of vasoactive agents, anaesthetised rabbit model of sexual arousal (laser Doppler)", "assay_type": "in vivo", "description": "as §1, §2\nAn initial infusion of Hepsaline (50UI/ml) was infused to act as a negative control."}}, "note": "“Also recorded” adds a separate entry of the source. Read-outs that look alike come from different tables or passages of the source."}
{"compound": "CC[C@H](C)[C@H](NC(=O)[C@H](CO)NC(=O)[C@H](CC(N)=O)NC(=O)[C@H](CC(C)C)NC(=O)[C@H](Cc1ccc(O)cc1)NC(=O)[C@H](CCCCN)NC(=O)[C@H](CCCCN)NC(=O)[C@@H](NC(=O)[C@H](C)NC(=O)[C@H](CCSC)NC(=O)[C@H](CCC(N)=O)NC(=O)[C@H](CCCCN)NC(=O)[C@H](CCCNC(=N)N)NC(=O)[C@H](CC(C)C)NC(=O)[C@H](CCCNC(=N)N)NC(=O)[C@@H](NC(=O)[C@H](Cc1ccc(O)cc1)NC(=O)[C@H](CC(N)=O)NC(=O)[C@H](CC(=O)O)NC(=O)[C@@H](NC(=O)[C@H](Cc1ccccc1)NC(=O)[C@@H](NC(=O)[C@H](C)NC(=O)[C@H](CC(=O)O)NC(=O)[C@H](CO)NC(=O)[C@@H](N)Cc1c[nH]cn1)C(C)C)[C@@H](C)O)[C@@H](C)O)C(C)C)C(=O)N[C@@H](CC(C)C)C(=O)N[C@@H](CC(N)=O)C(N)=O", "note": "[VIP, Vasoactive intestinal peptide]", "values": [{"measurement": "increase in heart rate", "setting": "anaesthetised rabbit; VIP 6.0 μg/kg iv", "result": "16±4", "unit": "beats per minute"}, {"measurement": "reduction in mean arterial blood pressure", "setting": "anaesthetised rabbit; VIP 6.0 μg/kg iv", "result": "13.2±0.7", "unit": "mm Hg"}, {"measurement": "increase in heart rate", "setting": "anaesthetised rabbit; VIP 60.0 μg/kg iv", "result": "111±30", "unit": "beats per minute"}, {"measurement": "reduction in mean arterial blood pressure", "setting": "anaesthetised rabbit; VIP 60.0 μg/kg iv", "result": "14.7±1.37", "unit": "mm Hg"}, {"measurement": "subsequent increase in mean arterial blood pressure", "setting": "anaesthetised rabbit; VIP 60.0 μg/kg iv, following heart rate increase", "result": "8.5±1.4", "unit": "mm Hg"}, {"measurement": "effect on mean arterial blood pressure", "setting": "anaesthetised rabbit; anaesthetised rabbit", "result": "significant depression"}, {"measurement": "effect on cAMP levels in vaginal smooth muscle cell cultures", "setting": "[1]", "result": "no effect; also recorded: fails to elevate"}, {"measurement": "increase in clitoral blood flow", "setting": "[2]", "result": 115, "unit": "%"}, {"measurement": "relaxation of precontracted isolated vagina", "setting": "isolated rabbit vagina; VIP 0.1 μM", "result": "circa 80%"}, {"measurement": "EC50", "setting": "isolated rabbit vagina; precontracted with 1 μM phenylephrine, read-out: EC50 for relaxation in isolated vaginal tissue", "result": "0.0188 ± 0.0006", "unit": "µM"}, {"measurement": "increase in vaginal blood flow", "setting": "[3]; VIP 60 μg/kg intravenous", "result": "24.7±3.6", "unit": "ml/min/100 g tissue"}, {"measurement": "time blood flow remained elevated above basal post-infusion", "setting": "[3]; VIP 60 μg/kg intravenous", "result": "about 11 minutes"}, {"measurement": "increase in vaginal blood flow", "setting": "[3]; VIP 6.0 g/kg (so in the source)", "result": "7.5±1.3", "unit": "ml/min/100 g tissue"}]}
